# Data: patent US20120329826A1, “SUBSTITUTED-5-AMINOPYRROLO/PYRAZOLOPYRIDINES” (OSI Pharmaceuticals,. LLC, priority 2010, published 2012)
# Structures can show the parent of a compound that is named as a salt.
# Experiments:
# RON (human) = RON (human) (Homo sapiens, UniProt Q04912); experiment: RON (human)-Km of ATP AlphaScreen kinase assay; conditions: biochemical, ATP at Km
# Procedure: RON (human)-Km of ATP: RON assay is performed in a 384 well assay containing 200 ng/μL biotinylated poly(Glu, Tyr), 0.334 mM vanadate, desired concentration of ATP optimized for the enzyme in assay buffer (50 mM HEPES (pH=7.4), 12.5 mM MgCl2 and 1% glycerol). Desired compound is added in a final concentration of 1% DMSO with control being vehicle of DMSO alone. RON is diluted to the optimized (on a lot-by-lot basis) concentration in an enzyme diluent buffer (50 mM HEPES pH=7.4, 12.5 mM MgCl2 and 1% glycerol, 0.03% Brij35, 0.3 mM EGTA, 1 mM DTT, and 0.003% BSA). Enzyme is added to initiate the reaction and incubated for 30 min at RT. In subdued light, appropriate amount of PT66 donor and acceptor beads (diluted 1:260 from manufacturer's provision in a 25 mM Tris HCl (pH=7.5), 200 mM NaCl, 100 mM EDTA, 0.3% BSA buffer) are added to the wells. The plates, incubated for 1 h, are read on an AlphaQuest plate reader.
# MET (human) = MET (human) (Homo sapiens, UniProt P08581); experiment: MET (human)-Km of ATP AlphaScreen kinase assay; conditions: biochemical, ATP at Km
# MET (human), sequence (P08581 25-1390): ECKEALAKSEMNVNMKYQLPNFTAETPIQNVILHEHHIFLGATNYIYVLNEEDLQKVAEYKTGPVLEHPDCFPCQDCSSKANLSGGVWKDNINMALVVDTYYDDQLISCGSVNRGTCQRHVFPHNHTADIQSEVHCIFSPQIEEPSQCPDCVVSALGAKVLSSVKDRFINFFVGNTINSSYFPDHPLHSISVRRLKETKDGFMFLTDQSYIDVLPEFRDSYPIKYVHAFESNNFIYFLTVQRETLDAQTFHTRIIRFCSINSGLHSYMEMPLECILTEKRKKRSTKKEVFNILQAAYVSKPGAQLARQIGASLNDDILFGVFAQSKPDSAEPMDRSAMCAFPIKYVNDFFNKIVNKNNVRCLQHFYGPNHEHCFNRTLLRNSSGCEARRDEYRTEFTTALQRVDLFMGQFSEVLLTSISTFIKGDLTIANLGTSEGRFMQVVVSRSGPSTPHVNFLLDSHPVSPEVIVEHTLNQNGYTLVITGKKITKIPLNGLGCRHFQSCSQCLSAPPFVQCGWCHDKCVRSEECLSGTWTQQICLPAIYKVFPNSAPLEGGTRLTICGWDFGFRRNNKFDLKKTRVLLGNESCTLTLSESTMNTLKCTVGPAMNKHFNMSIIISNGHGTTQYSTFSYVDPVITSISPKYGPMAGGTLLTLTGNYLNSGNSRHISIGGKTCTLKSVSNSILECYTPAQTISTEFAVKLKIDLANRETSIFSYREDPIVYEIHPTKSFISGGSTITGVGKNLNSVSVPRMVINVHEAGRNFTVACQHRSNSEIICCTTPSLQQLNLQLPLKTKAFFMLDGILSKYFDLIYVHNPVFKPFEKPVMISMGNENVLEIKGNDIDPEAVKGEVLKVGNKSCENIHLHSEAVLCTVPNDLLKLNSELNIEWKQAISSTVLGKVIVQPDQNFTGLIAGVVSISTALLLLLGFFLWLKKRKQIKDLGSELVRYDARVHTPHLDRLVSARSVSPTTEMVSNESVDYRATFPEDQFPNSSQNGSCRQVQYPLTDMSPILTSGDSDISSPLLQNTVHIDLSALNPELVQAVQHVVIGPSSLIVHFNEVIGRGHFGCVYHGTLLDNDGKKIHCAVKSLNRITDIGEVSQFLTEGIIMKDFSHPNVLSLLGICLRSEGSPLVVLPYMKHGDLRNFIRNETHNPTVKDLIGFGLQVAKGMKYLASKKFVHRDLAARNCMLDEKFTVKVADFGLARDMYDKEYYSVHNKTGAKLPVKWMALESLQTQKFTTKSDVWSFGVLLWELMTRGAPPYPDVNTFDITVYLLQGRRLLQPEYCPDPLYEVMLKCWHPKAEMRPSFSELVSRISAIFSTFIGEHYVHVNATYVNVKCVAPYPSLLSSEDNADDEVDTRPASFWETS
# Procedure: MET (human)-Km of ATP: MET assay is performed in a 384 well assay containing 200 ng/μL biotinylated poly(Glu, Tyr), 0.334 mM vanadate, desired concentration of ATP optimized for the enzyme in assay buffer (50 mM HEPES (pH=7.4), 5 mM MgCl2, 5 mM MnCl2, and 1% glycerol). Desired compound is added in a final concentration of 1% DMSO with control being vehicle of DMSO alone. MET is diluted to the optimized concentration (optimized on a lot-by-lot basis) in an enzyme diluent buffer (50 mM Tris pH=7.4, 1% glycerol, 0.03% Brij35, 0.24 mM EGTA, 1 mM DTT, and 0.003% BSA). Enzyme is added to initiate the reaction and incubated for 60 min at RT. In subdued light, appropriate amount of PT66 donor and acceptor beads (diluted 1:260 from manufacturer's provision in a 25 mM Tris HCl (pH=7.5), 400 mM NaCl, 100 mM EDTA, 0.3% BSA buffer) are added to the wells. The plates, incubated for 1 h, are read on an AlphaQuest plate reader
# RON (human), sequence (Q04912 25-1400): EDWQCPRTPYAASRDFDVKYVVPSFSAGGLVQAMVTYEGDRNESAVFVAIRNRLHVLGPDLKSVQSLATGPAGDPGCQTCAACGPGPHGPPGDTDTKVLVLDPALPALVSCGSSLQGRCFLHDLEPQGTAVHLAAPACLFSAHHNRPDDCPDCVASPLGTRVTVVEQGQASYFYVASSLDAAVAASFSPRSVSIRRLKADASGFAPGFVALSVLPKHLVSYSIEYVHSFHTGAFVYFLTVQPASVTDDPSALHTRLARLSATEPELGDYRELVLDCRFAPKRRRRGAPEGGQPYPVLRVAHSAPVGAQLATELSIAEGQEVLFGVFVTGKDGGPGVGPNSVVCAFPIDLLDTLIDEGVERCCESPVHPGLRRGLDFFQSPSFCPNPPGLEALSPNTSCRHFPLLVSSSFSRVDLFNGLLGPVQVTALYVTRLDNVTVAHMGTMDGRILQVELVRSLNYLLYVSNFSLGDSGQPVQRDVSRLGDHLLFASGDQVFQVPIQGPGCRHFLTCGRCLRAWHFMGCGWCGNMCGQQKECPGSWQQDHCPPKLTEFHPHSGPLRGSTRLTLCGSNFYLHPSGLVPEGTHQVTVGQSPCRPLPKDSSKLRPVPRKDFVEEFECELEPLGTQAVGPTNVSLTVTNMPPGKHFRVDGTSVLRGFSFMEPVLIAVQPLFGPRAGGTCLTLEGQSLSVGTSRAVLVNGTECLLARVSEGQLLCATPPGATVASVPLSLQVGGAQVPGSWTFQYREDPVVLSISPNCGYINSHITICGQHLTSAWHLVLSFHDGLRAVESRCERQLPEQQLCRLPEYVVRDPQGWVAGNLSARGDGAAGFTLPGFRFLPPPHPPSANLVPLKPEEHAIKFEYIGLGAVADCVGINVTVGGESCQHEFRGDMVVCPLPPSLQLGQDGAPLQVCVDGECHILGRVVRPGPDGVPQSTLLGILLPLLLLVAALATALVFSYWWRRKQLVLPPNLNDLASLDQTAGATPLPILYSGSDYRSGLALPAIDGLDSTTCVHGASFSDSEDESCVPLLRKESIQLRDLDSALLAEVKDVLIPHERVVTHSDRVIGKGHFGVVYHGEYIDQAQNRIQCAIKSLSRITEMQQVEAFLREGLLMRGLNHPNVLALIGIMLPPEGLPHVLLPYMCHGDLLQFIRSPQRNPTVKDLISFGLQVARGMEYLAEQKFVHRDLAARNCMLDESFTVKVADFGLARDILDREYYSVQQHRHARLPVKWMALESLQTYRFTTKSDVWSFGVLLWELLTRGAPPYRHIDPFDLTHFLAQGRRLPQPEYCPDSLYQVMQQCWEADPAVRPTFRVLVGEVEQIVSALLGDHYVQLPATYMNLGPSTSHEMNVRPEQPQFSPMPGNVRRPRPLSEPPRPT
SMILES,IC50 (RON (human)) [µM],IC50 (MET (human)) [µM]
"C[C@@H](Oc1c(N)ncc2[nH]ccc12)c1c(Cl)ccc(F)c1Cl [Example 1, 4-[(R)-1-(2,6-Dichloro-3-fluorophenyl)ethoxy]-1H-pyrrolo[2,3-c]pyridin-5-ylamine]",5 to 20,5 to 20
"C[C@@H](Oc1c(N)ncc2c1ccn2C)c1c(Cl)ccc(F)c1Cl [Example 2, 4-[(R)-1-(2,6-Dichloro-3-fluorophenyl)ethoxy]-1-methyl-1H-pyrrolo[2,3-c]pyridin-5-ylamine]",> 20,5 to 20
"C[C@@H](Oc1c(N)ncc2c1ccn2CCC1CCNCC1)c1c(Cl)ccc(F)c1Cl [Example 5, 4-[(R)-1-(2,6-Dichloro-3-fluorophenyl)ethoxy]-1-(2-piperidin-4-ylethyl)1H-pyrrolo[2,3-c]pyridin-5-ylamine bis-hydrochloride]",≤ 5,≤ 5
"C[C@@H](Oc1c(N)ncc2c1ccn2S(=O)(=O)c1ccccc1)c1c(Cl)ccc(F)c1Cl [Example 6, 1-Benzenesulfonyl-4-[(R)-1-(2,6-dichloro-3-fluorophenyl)ethoxy]-1H-pyrrolo[2,3-c]pyridin-5-ylamine]",> 20,5 to 20
"Nc1ncc2[nH]ccc2c1-c1cc2ccccc2o1 [Example 7, 4-Benzofuran-2-yl-1H-pyrrolo[2,3-c]pyridin-5-ylamine]",> 20,> 20
"Nc1ncc2c(ccn2Cc2ccccc2)c1-c1cc2ccccc2o1 [Example 8, [(4-Benzofuran-2-yl)-1-benzyl-1H-pyrrolo[2,3-c]pyridin-5-yl]amine]",> 20,
"Nc1ncc2c(ccn2CCC2CCNCC2)c1-c1cc2ccccc2o1 [Example 10, [(4-Benzofuran-2-yl)-1-(2-piperidin-4-ylethyl)-1H-pyrrolo[2,3-c]pyridin-5-yl]amine bis-hydrochloride]",≤ 5,≤ 5
